{
  "source": "patent US8067464B2",
  "about": "“Compositions and methods using apocynin compounds and nitric oxide donors” (Nitromed, Inc., priority 2004, dated 2011)",
  "origin": "cited, not measured here",
  "data": [
    {"smiles": "O=[N+]([O-])O[C@H]1CO[C@H]2[C@@H]1OC[C@H]2O[N+](=O)[O-]", "note": "[isosorbide dinitrate, 1,4,3,6-dianhydro-D-glucitol-2,5-dinitrate]", "values": [
      {"measurement": "solubility in organic solvents", "setting": "organic solvents such as ethanol, ether and chloroform", "result": "freely soluble"},
      {"measurement": "solubility in water", "setting": "water", "result": "sparingly soluble"}
    ]}
  ]
}
